Test results taken from patent US6977254B2, “Hydroxy cyclohexenyl phenyl carboxamides tocolytic oxytocin receptor antagonists” (Wyeth, priority 2001, dated 2005).

Key:
human oxytocin receptor = target: T1, human oxytocin receptor (Homo sapiens, UniProt P30559); test: Oxytocin binding in CHO cell membranes expressing human oxytocin receptors ([3H]oxytocin radioligand); settings: for IC50: value in parentheses, read-out: OT (IC50)
T1 construct: host or cells: CHO cells, stably transfected (pcDNA3.1 vector); membranes
T1 sequence (P30559 1-389): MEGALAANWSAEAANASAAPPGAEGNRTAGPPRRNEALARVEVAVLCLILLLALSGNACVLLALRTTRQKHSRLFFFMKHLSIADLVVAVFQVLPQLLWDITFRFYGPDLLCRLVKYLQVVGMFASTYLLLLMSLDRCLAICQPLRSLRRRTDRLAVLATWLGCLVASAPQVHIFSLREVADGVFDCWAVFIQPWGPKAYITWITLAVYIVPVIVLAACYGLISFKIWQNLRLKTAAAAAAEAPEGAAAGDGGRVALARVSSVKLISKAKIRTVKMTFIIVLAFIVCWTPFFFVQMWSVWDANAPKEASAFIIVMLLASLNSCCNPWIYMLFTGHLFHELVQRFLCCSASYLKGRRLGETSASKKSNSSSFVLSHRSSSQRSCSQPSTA
Excerpt: Oxytocin binding in Chinese Hamster Ovary cell membranes expressing human oxytocin receptors
Chinese Hamster Ovary (CHO) cells stably transfected with the human oxytocin (cf. T. Kimura et al., U.S. Pat. No. 5,466,584 (1995) to Rohto Pharmaceutical Co. Ltd., Osaka, Japan) were obtained from Dr. M. Thibonnier, Case Western Reserve University School of Medicine, Cleveland, Ohio.
A. Passaging and Amplification of Cells:
CHO cells transfected with the human oxytocin receptors obtained from M. Thibonnier (pcDNA3.1 vector) are allowed to grow to confluency (approx. >90%) in T-150 flasks under sterile conditions, in a cell culture medium of F-12 Nutrient Mixture (HAM) with L-glutamine (Gibco Cat. #11765-054) containing 15 mM HEPES (Gibco Cat. #15630-080), 1% antibiotic/antimycotic (add 5 mL 100×, Gibco Cat. #15240-062 per 500 mL F-12), 400 μg/mL of Geneticin (add 4 mL of 50 mg/mL per 500 mL F-12) and 10% Fetal Bovine Serum (Qualified, heat inactivated, Gibco Cat. #16140-063). The medium is removed by aspiration and the cells are washed with 10 mL of Hank's Balanced Salt solution (Gibco Cat. #14175-095). The salt solution is removed by aspiration and the cells trypsinized with 5 mL of trypsin-EDTA (0.05% trypsin, 0.53 mM EDTA-4Na, Gibco Cat. #25300-070) for 1 min The trypsin is removed by aspiration and the cells dislodged by tapping. Cell Culture medium (e.g. 30 mL for 1:30 split) is immediately added and mixed well to inactivate trypsin. 1 mL of detached cells is added to new culture flasks containing fresh Cell Culture medium (e.g. into 25 mL per T-150 flask), and mixed gently. The cells are incubated at 37° C. in 5% CO2. The medium is changed at 3 to 4 days interval (or as appropriate). The cells grow to confluency (approx. >75%-95%) within 7-8 days. All steps are done under sterile conditions.
The cells are washed twice gently with Hank's Balanced Salt solution (eg, use 10 mL per T-150 flask). The excess is removed and the cells bathed for 15-30 min. in an enzyme-free Cell Dissociation Buffer (eg, use 8 mL Hank's Based, Gibco Cat. #13150-016 per T-150 flask) until cells are loosened. The contents are transferred to centrifuge tubes (50 mL size) kept in ice bath. All subsequent steps are done at 4° C. The tubes are centrifuged at 300×g for 15 min (1380 rpm on SORVAL, Model RT6000D, using rotor for 50 mL tubes). The supernatant is discarded and the cells suspended in homogenizing buffer (10 mM Tris-HCl containing 0.25 M sucrose and 1 mM EDTA, pH 7.4) ensuring that the volume of the buffer is about ten times the volume of the cell pellet. The cells are pooled into a centrifuge tube (50 mL) and homogenized with Polytron at setting 6 for 10 sec. The homogenate is transferred into a Potter-Elvjehm homogenizer and homogenized with 3 strokes. The homogenate is centrifuged at 1500×g for 10 min at 4° C. (3100 rpm using SORVAL, model RT6000D, using rotor for 50 mL tubes). The pellet is discarded. The supernatant is centrifuged at 100,000×g for 60 min. at 4° C. (Beckman L8-80M ultracentrifuge; spin at 37,500 rpm with rotor type 70 Ti for 50 mL tubes; 38,000 rpm with type 80Ti for 15 mL tubes; or 35,800 rpm with rotor type 45Ti). The supernantant is discarded and the pellet suspended in 3 to 4 mL of Tris buffer (50 mM TRIS-HCl, pH 7.4). The protein content is estimated by the Bradford or Lowry method. The volume of the membrane suspension is adjusted with the membrane buffer (50 mM Tris-HCl containing 0.1% BSA and 0.1 mM PMSF) to give 3.0 mg/mL (or as appropriate) of protein. The membranes are aliquoted and stored at −70° C.
C. Radioligand Binding Assay:
In wells of a 96-well format microtiter plate, is added 90, 110 or 130 μL (to make up a final volume of 200 μL) of assay buffer containing 50 mM of Tris-HCl (pH 7.4), […], 1 mg % aprotinin, 1 mg % leupeptin, 2 mg % 1,10-phenanthroline, 10 mg % trypsin inhibitor, and 0.1 mM PMSF. The inhibitors are added on the day of the experiment. […]

Row | IC50 (human oxytocin receptor) | melting point | inhibition at 0.1 µM (human oxytocin receptor; 100 nM, value without parentheses, read-out: OT % inhibition @ 100 nM) | Structure (SMILES)
1 | 13 nM | 68 to 83 °C | – | COC[C@@H](OC)[C@@H](OC)[C@H](OC)[C@H](CN(C)C(=O)c1ccc2n1Cc1ccccc1N(C(=O)c1ccc(C3=CCCCC3)c(C)c1)C2)OC [Example 8, 10-(4-Cyclohex-1-en-1-yl-3-methylbenzoyl)-N-methyl-N-[(2S,3R,4R,5R)-2,3,4,5,6-pentamethoxyhexyl]-10,11-dihydro-5H-pyrrolo[2,1-c][1,4]benzodiazepine-3-carboxamide]
2 | 4.92 nM | 163 to 176 °C | – | COc1cc(C2=CCCCC2)c(Cl)cc1C(=O)N1Cc2ccc(C(=O)N(C)C[C@@H]3OC(=O)O[C@H]3[C@H](O)[C@H]3COC(=O)O3)n2Cc2ccccc21 [Example 3, 10-(5-Chloro-4-cyclohex-1-en-1-yl-2-methoxybenzoyl)-N-[((4S,5S)-5-{(R)-hydroxy[(4R)-2-oxo-1,3-dioxolan-4-yl]methyl}-2-oxo-1,3-dioxolan-4-yl)methyl]-N-methyl-10,11-dihydro-5H-pyrrolo[2,1-c][1,4]benzodiazepine-3-carboxamide]
3 | – | 162 to 168 °C | 99% | Cc1cc(C(=O)N2Cc3ccc(C(=O)N(C)C[C@@H]4OC(=O)O[C@H]4[C@H](O)[C@H]4COC(=O)O4)n3Cc3ccccc32)ccc1C1=CCCCC1 [Example 7, 10-(4-Cyclohex-1-en-1-yl-3-methylbenzoyl)-N-[((4S,5S)-5-{(R)-hydroxy[(4R)-2-oxo-1,3-dioxolan-4-yl]methyl}-2-oxo-1,3-dioxolan-4-yl)methyl]-N-methyl-10,11-dihydro-5H-pyrrolo[2,1-c][1,4]benzodiazepine-3-carboxamide]
4 | 2.07 nM | 155 to 157 °C | – | COc1cc(C2=CCCCC2)c(Cl)cc1C(=O)N1Cc2ccc(C(=O)N(C)CC(O)CO)n2Cc2ccccc21 (centres unmarked) [Example 4, 10-(5-Chloro-4-cyclohex-1-en-1-yl-2-methoxybenzoyl)-N-(2,3-dihydroxypropyl)-N-methyl-10,11-dihydro-5H-pyrrolo[2,1-c][1,4]benzodiazepine-3-carboxamide]
